The values below come from patent US20170304388A1, “NEW INDICATION OF CARDIOVASCULAR DRUGS FOR PREPARATION OF CANCER INHIBITION PHARMACEUTICAL COMPOSITION” (LAUNX BIOMEDICAL CO., LTD., priority 2014, published 2017).

Counter-ions that a name gives are not always drawn.

Holding throughout (format): cell-based
In series [1] the test system is A375 (Amelanotic Melanoma). The series can be described thus: Cell viability analysis (WST-1), A375. The settings on record: WST-1, OD450 nm, lower viability = better inhibition; for viability at 10 µM: Homo sapiens, A-375, 72 h, Table 3, drug 10 μM, read-out: survival rate (viability) of cancer cells, A375; for survival rate (viability) of cancer cells, A375: Table 3, drug 10 μM, 72 hours. For orientation: Tetrazolium assays rely on reduction of a dye to a coloured formazan, in cell work by metabolically active cells.

The test system of series [2] is HCT116 (Colorectal Carcinoma). The series can be described thus: Cell viability analysis (WST-1), HCT116. Conditions: WST-1, OD450 nm; for viability at 10 µM: Homo sapiens, HCT-116, 72 h, Table 3, drug 10 μM, read-out: survival rate (viability) of cancer cells, HCT116 (WT); for survival rate (viability) of cancer cells, HCT116 (WT): Table 3, drug 10 μM, 72 hours.
The test system of series [3] is HepG2 (Hepatocellular Carcinoma). The series can be described thus: Cell viability analysis (WST-1), HepG2. The settings on record: WST-1, OD450 nm; for viability at 10 µM: Homo sapiens, HepG2, 72 h, Table 3, drug 10 μM, read-out: survival rate (viability) of cancer cells, HepG2.
Series [4] relates to HeLa (Cervix Adenocarcinoma). The series can be described thus: Cell viability analysis (WST-1), HeLa. Conditions: Homo sapiens, HeLa, 72 h, Table 3, drug 10 μM, WST-1, OD450 nm, read-out: survival rate (viability) of cancer cells, HeLa.
The test system of series [5] is AGS (Gastric Adenocarcinoma). The series can be described thus: Cell viability analysis (WST-1), AGS. The settings on record: WST-1, OD450 nm; for viability at 10 µM: 72 h, Table 3, drug 10 μM, read-out: survival rate (viability) of cancer cells, AGS.
Series [6] deals with MKN-45 (Gastric Adenocarcinoma). The series can be described thus: Cell viability analysis (WST-1), MKN-45. The settings on record: WST-1, OD450 nm; for viability at 10 µM: Homo sapiens, MKN-45, 72 h, Table 3, drug 10 μM, read-out: survival rate (viability) of cancer cells, MKN-45.
In series [7] the test system is TSGH-8301 (Urinary Bladder Carcinoma). The series can be described thus: Cell viability analysis (WST-1), TSGH-8301. Conditions: WST-1, OD450 nm; for viability at 10 µM: 72 h, Table 3, drug 10 μM, read-out: survival rate (viability) of cancer cells, TSGH; for survival rate (viability) of cancer cells, TSGH: Table 3, drug 10 μM, 72 hours.
The subject of series [8] is A549 (Lung Adenocarcinoma). The series can be described thus: Cell viability analysis (WST-1), A549. The settings on record: WST-1, OD450 nm; for viability at 10 µM: Homo sapiens, A549, 72 h, Table 3, drug 10 μM, read-out: survival rate (viability) of cancer cells, A549.
Series [9] concerns MCF7 (Mammary Gland, Adenocarcinoma). The series can be described thus: Cell viability analysis (WST-1), MCF7. The settings on record: WST-1, OD450 nm; for viability at 10 µM: Homo sapiens, MCF7, 72 h, Table 3, drug 10 μM, read-out: survival rate (viability) of cancer cells, MCF7.
Series [10] relates to PC3 (Prostate Adenocarcinoma). The series can be described thus: Cell viability analysis (WST-1), PC3. The settings on record: WST-1, OD450 nm; for viability at 10 µM: 72 h, Table 3, drug 10 μM, read-out: survival rate (viability) of cancer cells, PC3.
For series [11], the system named is LoVo (Colorectal Adenocarcinoma). The series can be described thus: Cell viability analysis (WST-1), LoVo. Conditions: WST-1, OD450 nm; for viability at 10 µM: Homo sapiens, LoVo, 72 h, Table 3, drug 10 μM, read-out: survival rate (viability) of cancer cells, LoVo.
For series [12], the system named is HL-60 (Acute Promyelocytic Leukemia). The series can be described thus: Cell viability analysis (WST-1), HL-60. The settings on record: Table 3, drug 10 μM, 72 hours, WST-1, OD450 nm; for viability at 10 µM: Homo sapiens, HL-60, read-out: survival rate (viability) of cancer cells, HL-60.
Series [13] concerns cancer cell lines. The series can be described thus: Growth inhibitory effects on the panel of cancer cell lines. Conditions: drug 10 μM, 72 hours; for Numbers of inhibitory effect on cancer cell line: count of cancer cell lines inhibited; for inhibition effect on different cancer cell lines (in words): WST-1.
Series [14] relates to H1650 (Lung Adenocarcinoma). The series can be described thus: Cell viability analysis (WST-1), H1650. The settings on record: WST-1, OD450 nm; for viability at 10 µM: Homo sapiens, NCI-H1650, 72 h, Table 3, drug 10 μM, read-out: survival rate (viability) of cancer cells, H1650.

Regarding `NC(=O)c1ncn([C@@H]2O[C@H](CO)[C@@H](O)[C@H]2O)c1N` [Acadesine], the viability (in general, a read-out of living cells in per cent, often relative to untreated cells) at 10 µM was 99.1% in series [1]; 88.7% in series [2]; 103% in series [3]; 88.4% in series [4]; 75.4% in [5]; 81.5% in [6]. Further, the viability at 10 µM was determined as 99.7% in series [7]; 117% in [8]; 84.7% in [9]; 94.8% in series [10]; 80.9% in series [11]; 110% in [12]. Further, in [13], the “Numbers of inhibitory effect on cancer cell line” value (shortened to “Numbers of inhibitory effect”) turned out to be 0. Also, the “inhibition effect on different cancer cell lines (in words)” value in [13] is recorded as “significant inhibition effect”.

In the case of `NCCCCCC(=O)O` [Aminocaproic acid (Amicar), Aminocaproic acid], the viability at 10 µM in [1] came to 123%; in series [2], 114%; in series [4], 90.4%; in [5], 64.8%; in series [14] it was 65.4%; in [6], 80.2%. The viability at 10 µM in series [7] was 71.4%; in series [8], 70.3%; in series [9], 69.2%; in series [10], 79.6%; in series [11] it was 91.2%; in [12] it was 93%. In addition, in [13], the “Numbers of inhibitory effect” value is reported as 0.

Take `CC(C)OC(=O)C(C)(C)Oc1ccc(C(=O)c2ccc(Cl)cc2)cc1` [Fenofibrate (Tricor, Trilipix), Fenofibrate]: the viability at 10 µM came out at 159% in [1]; 98.9% in [2]; 104% in series [3]; 98.3% in series [4]; 84.1% in series [5]; 122% in [14]. Besides, the viability at 10 µM in series [6] was found to be 83.1%; in series [7], 103%; in [9], 78.1%; in [10], 105%; in series [12], 77.6%.

Consider `CC1Cc2ccccc2N1NC(=O)c1ccc(Cl)c(S(N)(=O)=O)c1` (stereo not shown) [Indapamide (Lozol), Indapamide], for which the viability at 10 µM in [1] came to 64.8%; in [2] it was 80%; in series [3] it was 84%; in series [4] it was 67.9%; in [5], 109%; in series [14], 86.7%. Further, the viability at 10 µM came to 105% in series [6]; 85% in series [7]; 106% in [8]; 65.5% in [9]; 76.8% in [10]; 92.7% in [11]. In addition, the “Numbers of inhibitory effect” value in series [13] is 0. Further, the “inhibition effect on different cancer cell lines (in words)” value in series [13] is on record as “significant inhibition effect”.

For the compound `CCC(NC(C)C)C(O)c1ccc(O)c(O)c1` (stereo not shown) [Isoetharine Mesylate], the viability at 10 µM in series [1] was 97%; in series [2], 96.1%; in series [3], 76.5%; in series [4], 81.6%; in series [5] it was 96.6%; in series [14] it was 91.7%. Besides, the viability at 10 µM in series [6] worked out at 91%; in [7], 88.3%; in series [8] it was 76.7%; in [9] it was 103%; in series [10], 71.6%; in [11], 100%. Further, the “Numbers of inhibitory effect” value in series [13] worked out at 0. Also, in [13], the “inhibition effect on different cancer cell lines (in words)” value was “significant inhibition effect”.

`Cc1cccc(Nc2ccccc2C(=O)O)c1C` [Mefenamic acid]: the viability at 10 µM in [1] amounted to 78.7%; in series [2] it was 85.9%; in [4] it was 76.1%; in [5], 71.1%; in series [14] it was 73.9%; in series [6], 115%. The viability at 10 µM in [7] was 118%; in [8] it was 116%; in series [9], 95.3%; in [10], 103%; in [11], 83.3%; in series [12] it was 113%. In [13], the “Numbers of inhibitory effect” value is reported as 0. In [13], the “inhibition effect on different cancer cell lines (in words)” value is reported as “significant inhibition effect”.

Take `O=C(O)/C=C/c1ccc(Cn2ccnc2)cc1` [Ozagrel]: the viability at 10 µM in series [1] came to 74.7%; in series [2] it was 102%; in series [3] it was 91.2%; in series [4] it was 77.7%; in series [5] it was 98.5%; in series [14], 80.6%. Besides, the viability at 10 µM came to 93.9% in series [6]; 69.4% in [7]; 77.7% in series [8]; 102% in series [9]; 80.6% in [11]; 118% in series [12]. For the same compound, the “Numbers of inhibitory effect” value in series [13] worked out at 0. In addition, the “inhibition effect on different cancer cell lines (in words)” value in series [13] is on record as “significant inhibition effect”.

Turning to `COc1ccc([C@H]2CNC(=O)C2)cc1OC1CCCC1` [S-(+)-Rolipram], in series [1], the “survival rate (viability) of cancer cells, A375” value is listed as 77.0. In addition, the “survival rate (viability) of cancer cells, HCT116 (WT)” value in series [2] is given as 86.2. Besides, the “survival rate (viability) of cancer cells, HepG2” value in series [3] (Table 3, drug 10 μM, 72 hours) stood at 90.4. Besides, the “survival rate (viability) of cancer cells, TSGH” value in series [7] turned out to be 81.1. Besides, the “survival rate (viability) of cancer cells, MCF7” value in [9] (Table 3, drug 10 μM, 72 hours) is on record as 80.4. Besides, in [10] (Table 3, drug 10 μM, 72 hours), the “survival rate (viability) of cancer cells, PC3” value worked out at 89.3. The “survival rate (viability) of cancer cells, LoVo” value in [11] (Table 3, drug 10 μM, 72 hours) came out at 94.1. In series [12], the “survival rate (viability) of cancer cells, HL-60” value stood at 107.3. Also, in series [13], the “Numbers of inhibitory effect” value stood at 0 and the “inhibition effect on different cancer cell lines (in words)” value is “significant inhibition effect”.

In the case of `CCCC(CCC)C(=O)[O-].[Na+]` [Valproic acid sodium salt], the “inhibition effect on different cancer cell lines (in words)” value in [13] was “significant inhibition effect”.

Turning to `CCCCC(=O)N(Cc1ccc(-c2ccccc2-c2nnn[nH]2)cc1)[C@H](C(=O)O)C(C)C` [Valsartan (Diovan), Valsartan], the “inhibition effect on different cancer cell lines (in words)” value in series [13] is given as “significant inhibition effect”.

On to `C=C1CC[C@H](O)C/C1=C/C=C1\CCC[C@]2(C)[C@@H]([C@H](C)CCCC(C)C)CC[C@@H]12` [Vitamin D3 (Cholecalciferol), Cholecalciferol], for which the “inhibition effect on different cancer cell lines (in words)” value in [13] was “significant inhibition effect”.

As for `Cc1cn([C@H]2C[C@H](N=[N+]=[N-])[C@@H](CO)O2)c(=O)[nH]c1=O` [Zidovudine (Retrovir), Zidovudine], the “inhibition effect on different cancer cell lines (in words)” value in [13] is “significant inhibition effect”.

With `COCCc1ccc(OCC(O)CNC(C)C)cc1` (stereo not shown) [toprolol tartrate], the “inhibition effect on different cancer cell lines (in words)” value in [13] is listed as “significant inhibition effect”.

For “Almotriptan malate [Almotriptan malate (Axert)]”, in [13], the “inhibition effect on different cancer cell lines (in words)” value is recorded as “significant inhibition effect”.

On to Gabexate mesylate, for which, in series [1], the “survival rate (viability) of cancer cells, A375” value is 77.9. For the same compound, in series [2], the “survival rate (viability) of cancer cells, HCT116 (WT)” value is reported as 114.9. In addition, the “survival rate (viability) of cancer cells, AGS” value in series [5] (Table 3, drug 10 μM, 72 hours) was found to be 75.0. For the same compound, in series [14] (Table 3, drug 10 μM, 72 hours), the “survival rate (viability) of cancer cells, H1650” value is 69.8. For the same compound, the “survival rate (viability) of cancer cells, MKN-45” value in series [6] (Table 3, drug 10 μM, 72 hours) came to 81.1. The “survival rate (viability) of cancer cells, TSGH” value in series [7] turned out to be 70.9. For the same compound, in series [8] (Table 3, drug 10 μM, 72 hours), the “survival rate (viability) of cancer cells, A549” value is reported as 77.3. The “survival rate (viability) of cancer cells, HL-60” value in series [12] is 117.6. In addition, in series [13], the “Numbers of inhibitory effect” value is listed as 0 and the “inhibition effect on different cancer cell lines (in words)” value is given as “significant inhibition effect”.

For the compound Ibutilide fumarate, the “inhibition effect on different cancer cell lines (in words)” value in [13] is listed as “significant inhibition effect”.
